Reference: publication PMC5626031, “Differential inhibition of adenylylated and deadenylylated forms of M. tuberculosis glutamine synthetase as a drug discovery platform” (PLoS ONE, 2017)
“Also recorded” adds a separate entry of the source. Like-named read-outs stand apart in the source and are kept apart here.

Key:
deadenylylated MtbGS = target: T1, deadenylylated MtbGS (Mycobacterium tuberculosis, UniProt P9WN39); assay: biochemical; set-up: species or system M. tuberculosis; conditions: 10μM final concentration, pre-incubation protocol
T1 construct: made in house; host or cells: E. coli YMC11E with pTBSK

adenylylated MtbGS = target: T2, adenylylated MtbGS (Mycobacterium tuberculosis, UniProt P9WN39); assay: biochemical; format: biochemical, M. tuberculosis; conditions: for inhibition at 10 µM: 10μM final concentration, pre-incubation protocol; for Selectivity for adenylylated vs deadenylylated MtbGS: from % inhibition at 10μM of both enzyme forms
T2 construct: made in house; host or cells: E. coli YMC11E(DE3) with pTBSK and pTBglnE

[1] = tested on: M.tb H37Rv reference strain; assay: BACTEC 460TB assay of mycobacterial growth; format: cell-based, Mycobacterium tuberculosis; conditions: for Activity against M.tb H37Rv, in words: 100 μM final concentration; for Growth inhibition of M.tb H37Rv (percentage of growth index): 100 μM, day 6 of incubation, relative to control cultures
[2] = tested on: M.tb (Beijing220) in mouse bone-marrow derived macrophages; assay: Intracellular M.tb in mouse bone-marrow derived macrophage assay; format: cell-based, Mycobacterium tuberculosis; conditions: for Activity against intracellular M.tb (Beijing220), in words / Percentage killing of intracellular M.tb (Beijing220), Fig 7: 100 μM; for Activity against intracellular M.tb (Beijing220), in words: Fig 7; for Percentage killing of intracellular M.tb (Beijing220), Fig 7: MOI 2:1, drug on day 4 post infection, harvest day 2 post drug, first experiment (8 selective compounds)
[3] = average over the 4 screens, read-out: Deadenylated Mtb GS (% inhibition) AVG
[4] = screen 1, read-out: Deadenylated Mtb GS (% inhibition) Screen 1
[5] = screen 2, read-out: Deadenylated Mtb GS (% inhibition) Screen 2
[6] = screen 3, read-out: Deadenylated Mtb GS (% inhibition) Screen 3
[7] = screen 4, read-out: Deadenylated Mtb GS (% inhibition) Screen 4
[8] = average over the 4 screens, read-out: Adenylated Mtb GS (% inhibition) AVG
[9] = screen 1, read-out: Adenylated Mtb GS (% inhibition) Screen 1
[10] = screen 2, read-out: Adenylated Mtb GS (% inhibition) Screen 2
[11] = screen 3, read-out: Adenylated Mtb GS (% inhibition) Screen 3
[12] = screen 4, read-out: Adenylated Mtb GS (% inhibition) Screen 4

T2 sequence (P9WN39 2-478 limits assumed): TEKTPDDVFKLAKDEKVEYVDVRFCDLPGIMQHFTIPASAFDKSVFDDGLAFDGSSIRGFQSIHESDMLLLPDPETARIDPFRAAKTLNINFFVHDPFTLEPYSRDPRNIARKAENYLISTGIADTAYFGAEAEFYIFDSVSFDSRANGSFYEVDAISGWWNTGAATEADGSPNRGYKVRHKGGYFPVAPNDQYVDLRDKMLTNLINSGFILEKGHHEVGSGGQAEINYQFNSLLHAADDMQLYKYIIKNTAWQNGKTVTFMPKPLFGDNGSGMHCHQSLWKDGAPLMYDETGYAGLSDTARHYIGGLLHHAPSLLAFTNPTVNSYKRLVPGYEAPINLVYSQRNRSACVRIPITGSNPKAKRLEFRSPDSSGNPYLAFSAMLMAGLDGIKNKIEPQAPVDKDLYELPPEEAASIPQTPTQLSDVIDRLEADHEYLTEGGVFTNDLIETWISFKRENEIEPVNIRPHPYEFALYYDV
T1 sequence (P9WN39 2-478 limits assumed): as above

SMILES	inhibition at 10 µM (deadenylylated MtbGS; [3]) [%]	inhibition at 10 µM (deadenylylated MtbGS; [4]) [%]	inhibition at 10 µM (deadenylylated MtbGS; [5]) [%]	inhibition at 10 µM (deadenylylated MtbGS; [6]) [%]	inhibition at 10 µM (deadenylylated MtbGS; [7]) [%]	inhibition at 10 µM (adenylylated MtbGS; [8]) [%]	inhibition at 10 µM (adenylylated MtbGS; [9]) [%]	inhibition at 10 µM (adenylylated MtbGS; [10]) [%]	inhibition at 10 µM (adenylylated MtbGS; [11]) [%]	inhibition at 10 µM (adenylylated MtbGS; [12]) [%]	Activity against M.tb H37Rv, in words [1]	Growth inhibition of M.tb H37Rv (percentage of growth index) [1] [%]	Activity against intracellular M.tb (Beijing220), in words [2]	Percentage killing of intracellular M.tb (Beijing220), Fig 7 [2] [%]	Selectivity for adenylylated vs deadenylylated MtbGS (adenylylated MtbGS)	Percentage killing of intracellular M.tb (Beijing220), Fig 8 ([2]; 100 μM for 2 days, second experiment at 10, 50 and 100 μM) [%]
NC(CCS(=O)(=O)O)C(=O)O (stereo not shown) [Compound 5]	2	0	0	6	0	38	48	33	40	29						
O=C(O)c1ccncc1 [Compound 5002]	8	0	10	8	14	45	68	40	38	35	no activity					
Nc1nc(N)c(NC(=O)c2ccccc2)c(O)n1 [Compound 5009]	47	57	41	44	44	40	37	50	50	22	no activity					
O=C1NC(C(=O)O)=C(C(=O)O)C(c2ccc([N+](=O)[O-])cc2)N1 (stereo not shown) [Compound 5012]	15	14	16	4	24	40	55	31	32	42	no activity					
Cc1nc(N)cc(C[n+]2csc(CCOP(=O)(O)O)c2C)n1 [Compound 5016]	11	7	19	3	13	43	51	43	46	30	no activity					
OCCNc1cc(N2CCCC2)ncn1 [Compound 5024]	47	49	44	52	44	43	46	48	43	36	no activity					
c1ccc(CNc2cc(N3CCCC3)ncn2)cc1 [Compound 5029]	7	5	8	7	9	60	79	46	56	60		66	moderate activity	67	GS-adenylylated specific	
O=NN(Cc1ccccc1)c1cc(N2CCCC2)ncn1 [Compound 5045]	48	44	45	54	48	0	0	0	0	0		98	moderate activity	64	significant selectivity for the deadenylylated MtbGS; also recorded: deadenylylated selective; also recorded: specific to the de-adenylylated form of GS	73
